Results on nine compounds are retold here after patent publication US10227323B2, “Glucosylceramide synthase inhibitors for the treatment of diseases” (BIOMARIN PHARMACEUTICAL INC., priority 2013, dated 2019).

The target in the assay is T1, GCS (Canis lupus familiaris, UniProt A0A8I3MXG6).
T1 sequence (A0A8I3MXG6 1-394): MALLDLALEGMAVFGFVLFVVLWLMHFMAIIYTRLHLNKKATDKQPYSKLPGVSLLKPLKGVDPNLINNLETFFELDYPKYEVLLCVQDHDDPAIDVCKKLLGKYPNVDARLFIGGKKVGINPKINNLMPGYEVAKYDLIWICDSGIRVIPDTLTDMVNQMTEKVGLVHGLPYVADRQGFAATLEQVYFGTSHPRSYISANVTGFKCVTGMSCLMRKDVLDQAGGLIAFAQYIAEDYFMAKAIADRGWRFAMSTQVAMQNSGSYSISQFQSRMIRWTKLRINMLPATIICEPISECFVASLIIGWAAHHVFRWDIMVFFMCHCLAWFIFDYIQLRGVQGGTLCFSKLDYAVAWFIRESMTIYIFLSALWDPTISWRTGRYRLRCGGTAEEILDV
The assay is described as follows: Assay 1: GCS Enzymatic Assay (MDCK cell lysate, C6-NBD-Ceramide, LC/MS). Format: biochemical, canine. The settings on record: Table 2; for IC50: data without asterisk, read-out: IC50 (nM) generated from Assay 1. Summed up:
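LC/MS/MS measurement of glucosylceramide and NBD-ceramide after a 1 h, 37 °C reaction with 100 μM UDP-glucose and 10 μM C6-NBD-ceramide gave IC50s or percent inhibition.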

One may read the IC50 as the concentration needed to halve the response being measured. As to `O=C(N[C@H](CN1CCCC1)[C@H](O)c1ccc(OC2CC2)c(Cl)c1)/C(=N/O)c1ccc(-c2ccc(F)cc2)cc1` [Compound 153, (E)-N-((1R,2R)-1-(3-chloro-4-cyclopropoxyphenyl)-1-hydroxy-3-(pyrrolidin-1-yl)propan-2-yl)-2-(4′-fluoro-[1,1′-biphenyl]-4-yl)-2-(hydroxyimino)acetamide], the IC50 was less than 50 nM.

`O=C(CCc1ccc2cc(F)ccc2c1)C(=O)N[C@H](CN1CCC1)[C@H](O)c1ccc(OC2CC2)c(Cl)c1` [Compound 154, N-((1R,2R)-3-(azetidin-1-yl)-1-(3-chloro-4-cyclopropoxyphenyl)-1-hydroxypropan-2-yl)-4-(6-fluoronaphthalen-2-yl)-2-oxobutanamide]: the “% inhibition generated from Assay 1” value (data marked by *) is given as “B* (the compound had a % inhibition of greater than or equal to about 3% but less than about 50%)”.

In the case of `O=C(N[C@H](CN1CCC1)[C@H](O)c1cc(F)c2c(c1)OCCO2)/C(=N/O)c1ccc(-c2ccc(F)cc2)cc1` [Compound 155, (E)-N-((1R,2R)-3-(azetidin-1-yl)-1-(8-fluoro-2,3-dihydrobenzo[b][1,4]dioxin-6-yl)-1-hydroxypropan-2-yl)-2-(4′-fluoro-[1,1′-biphenyl]-4-yl)-2-(hydroxyimino)acetamide], the IC50 is less than 50 nM.

Take `O=C(N[C@H](CN1CCCC1)[C@H](O)c1cc(F)c2c(c1)OCCO2)C(=O)c1ccc2ccc(Cl)cc2c1` [Compound 156, 2-(7-chloronaphthalen-2-yl)-N-((1R,2R)-1-(8-fluoro-2,3-dihydrobenzo[b][1,4]dioxin-6-yl)-1-hydroxy-3-(pyrrolidin-1-yl)propan-2-yl)-2-oxoacetamide]: the IC50 is less than 50 nM.

With `O=C(N[C@H](CN1CCC1)[C@H](O)c1cc(F)c2c(c1)OCCO2)C(F)(F)c1ccc(-c2ccc(F)cc2)cc1` [Compound 157, N-((1R,2R)-3-(azetidin-1-yl)-1-(8-fluoro-2,3-dihydrobenzo[b][1,4]dioxin-6-yl)-1-hydroxypropan-2-yl)-2,2-difluoro-2-(4′-fluoro-[1,1′-biphenyl]-4-yl)acetamide], the IC50 is less than 50 nM.

On to `O=C(N[C@H](CN1CCCC1)[C@H](O)c1cc(F)c2c(c1)OCCO2)/C(=N/O)c1ccc2cc(Cl)ccc2c1` [Compound 158, (E)-2-(6-chloronaphthalen-2-yl)-N-((1R,2R)-1-(8-fluoro-2,3-dihydrobenzo[b][1,4]dioxin-6-yl)-1-hydroxy-3-(pyrrolidin-1-yl)propan-2-yl)-2-(hydroxyimino)acetamide], for which the IC50 is less than 50 nM.

On to `O=C(N[C@H](CN1CCCC1)[C@H](O)c1ccc(OC2CC2)c(Cl)c1)C(F)(F)c1ccc(-c2ccc(F)cc2)cc1` [Compound 159, N-((1R,2R)-1-(3-chloro-4-cyclopropoxyphenyl)-1-hydroxy-3-(pyrrolidin-1-yl)propan-2-yl)-2,2-difluoro-2-(4′-fluoro-[1,1′-biphenyl]-4-yl)acetamide], for which the 50% inhibitory concentration (IC50) was less than 50 nM.

Turning to `O=C(N[C@H](CN1CCCC1)[C@H](O)c1ccc2c(c1)OCCO2)C(F)(F)c1ccc(-c2ccc(F)cc2)cc1` [Compound 160, N-((1R,2R)-1-(2,3-dihydrobenzo[b][1,4]dioxin-6-yl)-1-hydroxy-3-(pyrrolidin-1-yl)propan-2-yl)-2,2-difluoro-2-(4′-fluoro-[1,1′-biphenyl]-4-yl)acetamide], the IC50 is less than 50 nM.

For the compound `O=C(N[C@H](CN1CCC1)[C@H](O)c1ccc2c(c1)OCCO2)C(F)(F)c1ccc(-c2ccc(F)cc2)cc1` [Compound 161, N-((1R,2R)-3-(azetidin-1-yl)-1-(2,3-dihydrobenzo[b][1,4]dioxin-6-yl)-1-hydroxypropan-2-yl)-2,2-difluoro-2-(4′-fluoro-[1,1′-biphenyl]-4-yl)acetamide], the half-inhibitory concentration (IC50) is less than 50 nM.
